The text below walks through data of ChEMBL document CHEMBL1143100, “Phenylethynyl-pyrrolo[1,2-a]pyrazine: a new potent and selective tool in the mGluR5 antagonists arena” (Bioorg Med Chem Lett, 2008).

≈ marks a conversion by molar mass, not a printed value. Some results are limits rather than exact numbers.

The target in one data set is Metabotropic glutamate receptor 5 (Homo sapiens, UniProt P41594). Nature of the data set: Antagonist activity at human mGluR5 expressed in CHO cells assessed as increase in intracellular calcium level by FLIPR. The class given is functional, cell-based.
Sequence of Metabotropic glutamate receptor 5 (P41594 whole entry): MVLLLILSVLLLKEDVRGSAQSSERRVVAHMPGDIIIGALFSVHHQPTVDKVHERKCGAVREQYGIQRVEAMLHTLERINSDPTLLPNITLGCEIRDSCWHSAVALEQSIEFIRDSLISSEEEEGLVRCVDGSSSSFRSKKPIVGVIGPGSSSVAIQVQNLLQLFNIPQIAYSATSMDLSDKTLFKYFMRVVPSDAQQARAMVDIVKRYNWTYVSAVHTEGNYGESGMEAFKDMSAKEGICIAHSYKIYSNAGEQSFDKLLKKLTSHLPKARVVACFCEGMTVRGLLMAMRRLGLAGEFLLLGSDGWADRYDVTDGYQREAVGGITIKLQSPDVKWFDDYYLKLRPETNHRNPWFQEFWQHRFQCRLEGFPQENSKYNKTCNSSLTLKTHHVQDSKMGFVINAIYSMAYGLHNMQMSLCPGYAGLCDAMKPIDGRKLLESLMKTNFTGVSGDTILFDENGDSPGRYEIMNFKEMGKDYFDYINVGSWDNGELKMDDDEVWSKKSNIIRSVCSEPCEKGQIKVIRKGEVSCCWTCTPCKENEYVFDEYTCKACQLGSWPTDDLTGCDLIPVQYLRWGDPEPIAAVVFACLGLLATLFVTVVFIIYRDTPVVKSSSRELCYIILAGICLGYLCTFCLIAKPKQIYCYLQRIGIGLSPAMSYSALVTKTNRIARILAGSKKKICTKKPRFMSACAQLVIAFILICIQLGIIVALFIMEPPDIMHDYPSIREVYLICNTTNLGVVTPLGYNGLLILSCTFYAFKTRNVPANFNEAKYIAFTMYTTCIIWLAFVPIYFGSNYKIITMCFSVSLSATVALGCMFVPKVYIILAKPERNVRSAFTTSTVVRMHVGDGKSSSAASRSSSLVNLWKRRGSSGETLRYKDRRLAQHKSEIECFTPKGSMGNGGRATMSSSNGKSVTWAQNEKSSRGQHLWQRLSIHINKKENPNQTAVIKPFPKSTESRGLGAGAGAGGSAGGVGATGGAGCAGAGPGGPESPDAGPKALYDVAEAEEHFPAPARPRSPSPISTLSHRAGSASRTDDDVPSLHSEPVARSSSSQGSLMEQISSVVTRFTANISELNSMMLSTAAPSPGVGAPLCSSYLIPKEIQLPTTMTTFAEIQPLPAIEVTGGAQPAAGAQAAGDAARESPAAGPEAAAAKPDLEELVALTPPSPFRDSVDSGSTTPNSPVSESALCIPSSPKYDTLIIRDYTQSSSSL
Settings: not given
`Cc1cn2cc(C(F)(F)F)cc2c(C#Cc2cccc(C(=O)O)c2)n1`: the IC50 was more than 12600 nM. Still for that read-out and setting: next, `Cc1cn2cc(C(F)(F)F)cc2c(C#Cc2ccc(NS(C)(=O)=O)cc2)n1`: more than 15800 nM; `Cc1cn2cc(C(F)(F)F)cc2c(C#Cc2cccc(-c3ccoc3)c2)n1`: 10000 nM. The same measure, in the same setting: then `Cc1cn2cc(C(F)(F)F)cc2c(C#Cc2cccc(-c3c(C)noc3C)c2)n1`, with more than 12600 nM. Consider `Cc1cn2cc(C(=O)N3CCCCC3C)cc2c(C#Cc2ccsc2)n1` (configuration not stated), for which the IC50 was 100 nM.

`Cc1cn2cc(C(=O)N3CCCC3C)cc2c(C#Cc2ccsc2)n1` (configuration not stated): the IC50 is 39.8 nM. With `Cc1cc2c(C#Cc3ccc(C(F)(F)F)cc3)nc(C)cn2c1`, the IC50 was more than 15800 nM. On the same count and under the same terms, next, `Cc1cn2cc(C(N)=O)cc2c(C#Cc2ccccc2F)n1`: 501 nM; `Cc1cn2cccc2c(C#Cc2ccc(Br)cc2)n1`: more than 12600 nM. As for `Cc1cn2cc(C#N)cc2c(C#Cc2cccc(F)c2)n1`, the IC50 was 0.794 nM.

Take `Cc1cn2cc(C(F)(F)F)cc2c(C#Cc2cccc(Br)c2)n1`: the IC50 was 25.1 nM. In the case of `Cc1cn2cc(C(F)(F)F)cc2c(C#Cc2cccc(-c3ccsc3)c2)n1`, the IC50 is 5010 nM. For `Cc1cc2c(C#Cc3cccnc3)nc(C)cn2c1`, the IC50 is 2000 nM. The same measure, in the same setting: next, `Cc1cn2cc(C(=O)N3CCN(C)CC3)cc2c(C#Cc2cccc(C(F)(F)F)c2)n1`: 251 nM; `Cc1cc2c(C#Cc3ccccc3)nc(C)cn2c1`: 50.1 nM; `Cc1cccc(C#Cc2nc(C)cn3cccc23)c1`: 0.398 nM.

For `Cc1cn2cc(C(F)(F)F)cc2c(C#Cc2cccnc2)n1`, the IC50 was 501 nM. As for `Cc1cn2cc(C(F)(F)F)cc2c(C#Cc2ccc(C#N)cc2)n1`, the half-inhibitory concentration (IC50) was more than 15800 nM.

`Cc1cn2cc(CN3CCNC(=O)C3)cc2c(C#Cc2ccccc2)n1`: the IC50 is 200 nM.

As to `Cc1cn2cc(C(=O)N3CCC(F)(F)C3)cc2c(C#Cc2ccsc2)n1`, the IC50 is 126 nM. On the same count and under the same terms, then `CCOC(=O)c1cc2c(C#Cc3ccc(C#N)cc3)nc(C)cn2c1`, with more than 15800 nM; and `Cc1cn2cc(C(=O)N3CCN(C)CC3)cc2c(C#Cc2ccsc2)n1`, with 158 nM; and `Cc1cn2cc(C(=O)N3CCCC3)cc2c(C#Cc2ccsc2)n1`, with 20 nM. On the same count and under the same terms, then `Cc1cn2cc(C(F)(F)F)cc2c(C#Cc2cccs2)n1`, with 63.1 nM; and `Cc1cn2cc(C(F)(F)F)cc2c(C#Cc2ccc(C(F)(F)F)cc2)n1`, with more than 15800 nM.

In the case of `Cc1cn2cc(C(F)(F)F)cc2c(C#Cc2ccc(F)cc2F)n1`, the IC50 is more than 15800 nM.

Tested on in a further data set: not listed separately
The experiment in a line: Solubility at pH 7.4. It counts as physicochemical. The note with it: buffer.
In turn, `Cc1cccc(C#Cc2ccccc2)n1` returned a solubility of 70 µg/mL (≈ 362 µM).

A word on the IC50: it is the concentration that inhibits the measured activity by half. As a reminder, the solubility is the concentration that dissolves in the medium under given conditions. Higher therefore signals much dissolved substance.
